In PMC11062922 (Nature Chemical Biology, 2023):
One block for each compound: values may come before it.

Tests used:
PKN1 = molecular target: T1, PKN1 (Homo sapiens, UniProt Q16512); assay: Kinobeads full dose-response competition binding: PKN1; conditions: Gene Name PKN1; for Relative Intensity 0.3nM: 0.3nM compound; for Relative Intensity 0.3nM / Relative Intensity 1nM / Relative Intensity 3nM / Relative Intensity 10nM / Relative Intensity 30nM / Relative Intensity 100nM / Relative Intensity 300nM / Relative Intensity 1000nM: DMSO = 1; for Relative Intensity 1nM: 1nM compound; for Relative Intensity 3nM: 3nM compound; for Relative Intensity 10nM: 10nM compound; for Relative Intensity 30nM: 30nM compound; for Relative Intensity 100nM: 100nM compound; for Relative Intensity 300nM: 300nM compound; for Relative Intensity 1000nM: 1000nM compound
T1 construct: a mixture of lysates from five cancer cell lines; endogenous in cells

PAK4 = molecular target: T2, PAK4 (Homo sapiens, UniProt O96013); assay: Kinobeads full dose-response competition binding: PAK4; conditions: Gene Name PAK4; for Relative Intensity 0.3nM: 0.3nM compound; for Relative Intensity 0.3nM / Relative Intensity 1nM / Relative Intensity 3nM / Relative Intensity 10nM / Relative Intensity 30nM / Relative Intensity 100nM / Relative Intensity 300nM / Relative Intensity 1000nM: DMSO = 1; for Relative Intensity 1nM: 1nM compound; for Relative Intensity 3nM: 3nM compound; for Relative Intensity 10nM: 10nM compound; for Relative Intensity 30nM: 30nM compound; for Relative Intensity 100nM: 100nM compound; for Relative Intensity 300nM: 300nM compound; for Relative Intensity 1000nM: 1000nM compound
T2 construct: a mixture of lysates from five cancer cell lines; endogenous in cells

PRKX = molecular target: T3, PRKX (Homo sapiens, UniProt P51817); assay: Kinobeads full dose-response competition binding: PRKX; conditions: Gene Name PRKX; for Relative Intensity 0.3nM: 0.3nM compound; for Relative Intensity 0.3nM / Relative Intensity 1nM / Relative Intensity 3nM / Relative Intensity 10nM / Relative Intensity 30nM / Relative Intensity 100nM / Relative Intensity 300nM / Relative Intensity 1000nM: DMSO = 1; for Relative Intensity 1nM: 1nM compound; for Relative Intensity 3nM: 3nM compound; for Relative Intensity 10nM: 10nM compound; for Relative Intensity 30nM: 30nM compound; for Relative Intensity 100nM: 100nM compound; for Relative Intensity 300nM: 300nM compound; for Relative Intensity 1000nM: 1000nM compound; for Kd: EC50 with Correction, read-out: apparent Kd; for Kd / EC50: doses in nM; for EC50: eight-dose curve fit
T3 construct: endogenous in cells
T3 sequence (P51817 1-358): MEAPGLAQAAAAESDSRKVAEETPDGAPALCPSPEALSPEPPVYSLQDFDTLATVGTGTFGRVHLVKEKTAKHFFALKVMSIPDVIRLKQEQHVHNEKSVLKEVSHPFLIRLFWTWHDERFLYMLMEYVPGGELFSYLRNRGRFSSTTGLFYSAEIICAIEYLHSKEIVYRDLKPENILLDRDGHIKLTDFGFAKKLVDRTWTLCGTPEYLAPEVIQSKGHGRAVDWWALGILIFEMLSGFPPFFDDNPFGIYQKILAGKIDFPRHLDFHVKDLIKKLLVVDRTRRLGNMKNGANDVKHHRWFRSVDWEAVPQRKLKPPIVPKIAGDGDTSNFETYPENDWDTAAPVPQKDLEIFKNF

GSK3A = molecular target: T4, GSK3A (Homo sapiens, UniProt P49840); assay: Kinobeads full dose-response competition binding: GSK3A; conditions: Gene Name GSK3A; for Relative Intensity 0.3nM: 0.3nM compound; for Relative Intensity 0.3nM / Relative Intensity 1nM / Relative Intensity 3nM / Relative Intensity 10nM / Relative Intensity 30nM / Relative Intensity 100nM / Relative Intensity 300nM / Relative Intensity 1000nM: DMSO = 1; for Relative Intensity 1nM: 1nM compound; for Relative Intensity 3nM: 3nM compound; for Relative Intensity 10nM: 10nM compound; for Relative Intensity 30nM: 30nM compound; for Relative Intensity 100nM: 100nM compound; for Relative Intensity 300nM: 300nM compound; for Relative Intensity 1000nM: 1000nM compound; for Kd: EC50 with Correction, read-out: apparent Kd; for Kd / EC50: doses in nM; for EC50: eight-dose curve fit
T4 construct: endogenous in cells

LATS1 = molecular target: T5, LATS1 (Homo sapiens, UniProt O95835); assay: Kinobeads full dose-response competition binding: LATS1; conditions: Gene Name LATS1; for Relative Intensity 0.3nM: 0.3nM compound; for Relative Intensity 0.3nM / Relative Intensity 1nM / Relative Intensity 3nM / Relative Intensity 10nM / Relative Intensity 30nM / Relative Intensity 100nM / Relative Intensity 300nM / Relative Intensity 1000nM: DMSO = 1; for Relative Intensity 1nM: 1nM compound; for Relative Intensity 3nM: 3nM compound; for Relative Intensity 10nM: 10nM compound; for Relative Intensity 30nM: 30nM compound; for Relative Intensity 100nM: 100nM compound; for Relative Intensity 300nM: 300nM compound; for Relative Intensity 1000nM: 1000nM compound; for Kd: EC50 with Correction, read-out: apparent Kd; for Kd / EC50: doses in nM; for EC50: eight-dose curve fit
T5 construct: endogenous in cells
T5 sequence (O95835 1-1130): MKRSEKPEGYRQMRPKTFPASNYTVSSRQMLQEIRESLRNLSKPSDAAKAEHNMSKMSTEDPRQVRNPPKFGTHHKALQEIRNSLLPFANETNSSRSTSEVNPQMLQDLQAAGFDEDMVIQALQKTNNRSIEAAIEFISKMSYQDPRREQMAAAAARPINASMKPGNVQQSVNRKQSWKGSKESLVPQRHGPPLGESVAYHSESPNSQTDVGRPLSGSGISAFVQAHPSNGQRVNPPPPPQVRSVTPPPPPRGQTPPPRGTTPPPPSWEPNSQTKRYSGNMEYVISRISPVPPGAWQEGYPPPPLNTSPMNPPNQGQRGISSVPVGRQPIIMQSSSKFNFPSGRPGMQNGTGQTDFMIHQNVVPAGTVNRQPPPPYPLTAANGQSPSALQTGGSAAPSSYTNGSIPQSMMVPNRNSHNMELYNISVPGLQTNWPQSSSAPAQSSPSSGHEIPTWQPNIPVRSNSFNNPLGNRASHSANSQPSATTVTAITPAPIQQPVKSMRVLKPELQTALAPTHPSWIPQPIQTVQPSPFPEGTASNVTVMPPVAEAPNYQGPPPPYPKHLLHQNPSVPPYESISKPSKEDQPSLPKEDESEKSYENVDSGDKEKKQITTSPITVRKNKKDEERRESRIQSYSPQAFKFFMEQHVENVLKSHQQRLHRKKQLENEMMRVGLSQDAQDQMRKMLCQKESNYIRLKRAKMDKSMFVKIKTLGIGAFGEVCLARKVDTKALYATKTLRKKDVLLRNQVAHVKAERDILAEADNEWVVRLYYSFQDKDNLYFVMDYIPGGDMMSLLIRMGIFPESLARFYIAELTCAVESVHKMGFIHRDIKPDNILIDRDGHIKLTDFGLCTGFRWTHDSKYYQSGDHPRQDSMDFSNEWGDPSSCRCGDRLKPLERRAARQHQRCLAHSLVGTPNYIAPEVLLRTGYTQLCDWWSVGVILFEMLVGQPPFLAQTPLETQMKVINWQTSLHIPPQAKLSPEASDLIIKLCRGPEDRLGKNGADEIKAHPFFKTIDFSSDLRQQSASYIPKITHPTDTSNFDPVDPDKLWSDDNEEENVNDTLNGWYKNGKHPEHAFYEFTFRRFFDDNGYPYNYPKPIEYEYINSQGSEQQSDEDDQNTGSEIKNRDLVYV

PRKAR2A = molecular target: T6, PRKAR2A (Homo sapiens, UniProt P13861); assay: Kinobeads competition binding, Lestaurtinib control replicates: PRKAR2A; conditions: read-out: Lestaurtinib Drugmatrix value; Gene Name PRKAR2A; one column per experiment number and replicate (R1-R3)
T6 construct: to maximize the representation of endogenous proteins; endogenous in cells

SYK = molecular target: T7, SYK (Homo sapiens, UniProt P43405); assay: Kinobeads two-dose competition binding: SYK
T7 construct: endogenous in cells

[1] = EC50 with Correction, doses in nM, read-out: apparent Kd
[2] = eight-dose curve fit, doses in nM

T2 sequence (O96013 whole entry): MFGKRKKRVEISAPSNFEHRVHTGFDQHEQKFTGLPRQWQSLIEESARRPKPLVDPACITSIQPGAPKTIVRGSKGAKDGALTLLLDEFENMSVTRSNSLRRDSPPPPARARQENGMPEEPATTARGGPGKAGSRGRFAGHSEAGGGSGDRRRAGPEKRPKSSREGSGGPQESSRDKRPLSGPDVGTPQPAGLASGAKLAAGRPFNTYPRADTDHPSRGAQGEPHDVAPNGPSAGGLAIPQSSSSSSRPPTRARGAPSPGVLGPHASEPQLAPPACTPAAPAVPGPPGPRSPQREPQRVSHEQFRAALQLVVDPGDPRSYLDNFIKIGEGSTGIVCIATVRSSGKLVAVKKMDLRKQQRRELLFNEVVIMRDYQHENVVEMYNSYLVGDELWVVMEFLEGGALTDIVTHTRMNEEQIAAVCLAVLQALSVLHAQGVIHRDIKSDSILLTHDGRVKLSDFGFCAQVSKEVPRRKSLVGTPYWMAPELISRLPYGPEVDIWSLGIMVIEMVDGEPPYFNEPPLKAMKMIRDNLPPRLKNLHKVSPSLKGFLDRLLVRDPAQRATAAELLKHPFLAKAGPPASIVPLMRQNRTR
T4 sequence (P49840 whole entry): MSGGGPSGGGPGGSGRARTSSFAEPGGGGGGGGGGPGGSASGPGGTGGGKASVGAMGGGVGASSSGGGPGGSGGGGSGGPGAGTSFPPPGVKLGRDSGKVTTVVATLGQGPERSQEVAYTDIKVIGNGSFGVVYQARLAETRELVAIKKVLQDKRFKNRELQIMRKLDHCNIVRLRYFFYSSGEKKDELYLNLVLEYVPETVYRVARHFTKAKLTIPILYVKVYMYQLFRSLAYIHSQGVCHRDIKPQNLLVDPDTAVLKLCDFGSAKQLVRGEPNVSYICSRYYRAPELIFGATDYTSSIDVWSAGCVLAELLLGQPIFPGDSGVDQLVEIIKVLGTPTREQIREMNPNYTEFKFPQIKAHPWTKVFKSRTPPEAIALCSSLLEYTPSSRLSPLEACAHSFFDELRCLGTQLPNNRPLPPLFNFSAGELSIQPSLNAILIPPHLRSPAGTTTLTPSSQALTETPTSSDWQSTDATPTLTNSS
T1 sequence (Q16512 whole entry): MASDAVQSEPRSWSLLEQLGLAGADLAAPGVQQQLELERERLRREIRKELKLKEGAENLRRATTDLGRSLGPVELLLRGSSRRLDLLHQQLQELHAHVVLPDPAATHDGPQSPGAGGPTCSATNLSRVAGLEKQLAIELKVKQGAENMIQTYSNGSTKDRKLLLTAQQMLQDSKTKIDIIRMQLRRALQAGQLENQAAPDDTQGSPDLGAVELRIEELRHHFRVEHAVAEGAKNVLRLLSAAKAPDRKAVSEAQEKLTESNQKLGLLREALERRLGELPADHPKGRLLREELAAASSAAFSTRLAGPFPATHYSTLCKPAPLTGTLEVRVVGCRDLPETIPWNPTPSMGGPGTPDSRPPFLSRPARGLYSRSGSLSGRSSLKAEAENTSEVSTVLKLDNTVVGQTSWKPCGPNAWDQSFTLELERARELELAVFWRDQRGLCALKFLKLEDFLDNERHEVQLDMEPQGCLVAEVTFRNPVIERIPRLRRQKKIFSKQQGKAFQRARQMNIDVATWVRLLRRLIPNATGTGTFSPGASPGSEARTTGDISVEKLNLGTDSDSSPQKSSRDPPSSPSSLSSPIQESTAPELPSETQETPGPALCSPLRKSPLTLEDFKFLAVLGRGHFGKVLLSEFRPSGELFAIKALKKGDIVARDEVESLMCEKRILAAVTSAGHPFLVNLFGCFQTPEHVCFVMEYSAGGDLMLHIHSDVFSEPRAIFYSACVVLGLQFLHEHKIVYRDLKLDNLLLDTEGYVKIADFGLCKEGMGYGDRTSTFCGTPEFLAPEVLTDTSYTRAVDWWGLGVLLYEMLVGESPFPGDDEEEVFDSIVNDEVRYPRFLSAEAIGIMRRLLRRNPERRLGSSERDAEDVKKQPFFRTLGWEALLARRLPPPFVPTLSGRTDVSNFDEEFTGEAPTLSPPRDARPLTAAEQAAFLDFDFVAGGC

- Relative Intensity 0.3nM (PKN1): 0.9859
- Relative Intensity 1nM (PKN1): 1.011
- Relative Intensity 3nM (PKN1): 0.9965
- Relative Intensity 10nM (PKN1): 0.9627
- Relative Intensity 30nM (PKN1): 0.7754
- Relative Intensity 100nM (PKN1): 0.5397
- Relative Intensity 300nM (PKN1): 0.2684
- Relative Intensity 1000nM (PKN1): 0.1427
- Kd (PKN1; [1]): 92.3 nM
- EC50 (PKN1; [2]): 92.3 nM
- Relative Intensity 0.3nM (PAK4): 1.05
- Relative Intensity 1nM (PAK4): 1.027
- Relative Intensity 3nM (PAK4): 1.044
- Relative Intensity 10nM (PAK4): 0.9586
- Relative Intensity 30nM (PAK4): 0.8645
- Relative Intensity 100nM (PAK4): 0.8782
- Relative Intensity 300nM (PAK4): 0.7175
- Relative Intensity 1000nM (PAK4): 0.4475
- Relative Intensity 0.3nM (PRKX): 0.9197
- Relative Intensity 1nM (PRKX): 0.9321
- Relative Intensity 3nM (PRKX): 1.015
- Relative Intensity 10nM (PRKX): 0.9379
- Relative Intensity 30nM (PRKX): 0.8892
- Relative Intensity 100nM (PRKX): 0.6426
- Relative Intensity 300nM (PRKX): 0.2553
- Relative Intensity 1000nM (PRKX): 0.1464
- Kd (PRKX): 127 nM
- EC50 (PRKX): 127 nM
- Relative Intensity 0.3nM (GSK3A): 0.9894
- Relative Intensity 1nM (GSK3A): 1.046
- Relative Intensity 3nM (GSK3A): 1.057
- Relative Intensity 10nM (GSK3A): 0.9554
- Relative Intensity 30nM (GSK3A): 0.7994
- Relative Intensity 100nM (GSK3A): 0.6557
- Relative Intensity 300nM (GSK3A): 0.3972
- Relative Intensity 1000nM (GSK3A): 0.1852
- Kd (GSK3A): 164 nM
- EC50 (GSK3A): 173 nM
- Relative Intensity 0.3nM (LATS1): 0.9708
- Relative Intensity 1nM (LATS1): 1.022
- Relative Intensity 3nM (LATS1): 1.017
- Relative Intensity 10nM (LATS1): 1.027
- Relative Intensity 30nM (LATS1): 0.7859
- Relative Intensity 100nM (LATS1): 0.4584
- Relative Intensity 300nM (LATS1): 0.1984
- Relative Intensity 1000nM (LATS1): 0.02738
- Kd (LATS1): 87.4 nM
- EC50 (LATS1): 87.4 nM
SMILES: CCn1c(-c2nonc2N)nc2c(C#CC(C)(C)O)nc(OCCN)cc21 [GSK902056A]

SMILES: C[C@]12O[C@H](C[C@]1(O)CO)n1c3ccccc3c3c4c(c5c6ccccc6n2c5c31)CNC4=O [Lestaurtinib]
- potency estimated from few doses (PRKAR2A): 979 nM
- potency estimated from few doses (SYK; read-out: Lestaurtinib Drugmatrix value, Gene Name SYK): 157 nM

SMILES: CCn1c(-c2nonc2N)nc2c(C#CC(C)(C)O)nc(OCCNC)cc21 [GSK949675A]
- Relative Intensity 0.3nM (PKN1): 1.026
- Relative Intensity 1nM (PKN1): 1.04
- Relative Intensity 3nM (PKN1): 1.011
- Relative Intensity 10nM (PKN1): 0.946
- Relative Intensity 30nM (PKN1): 0.9307
- Relative Intensity 100nM (PKN1): 0.9366
- Relative Intensity 300nM (PKN1): 0.7358
- Relative Intensity 1000nM (PKN1): 0.4262
- Relative Intensity 0.3nM (PAK4): 1.024
- Relative Intensity 1nM (PAK4): 1.092
- Relative Intensity 3nM (PAK4): 1.039
- Relative Intensity 10nM (PAK4): 0.9797
- Relative Intensity 30nM (PAK4): 0.9918
- Relative Intensity 100nM (PAK4): 0.907
- Relative Intensity 300nM (PAK4): 0.6926
- Relative Intensity 1000nM (PAK4): 0.4818
- Kd (PAK4; [1]): 218 nM
- EC50 (PAK4; [2]): 316 nM
- Relative Intensity 0.3nM (PRKX): 1.295
- Relative Intensity 1nM (PRKX): 1.2278
- Relative Intensity 3nM (PRKX): 1.244
- Relative Intensity 10nM (PRKX): 1.16
- Relative Intensity 30nM (PRKX): 1.169
- Relative Intensity 100nM (PRKX): 0.9393
- Relative Intensity 300nM (PRKX): 0.5982
- Relative Intensity 1000nM (PRKX): 0.3002
- Kd (PRKX): 221 nM
- EC50 (PRKX): 221 nM
- Relative Intensity 0.3nM (GSK3A): 1.008
- Relative Intensity 1nM (GSK3A): 1.091
- Relative Intensity 3nM (GSK3A): 1.095
- Relative Intensity 10nM (GSK3A): 0.9753
- Relative Intensity 30nM (GSK3A): 1.009
- Relative Intensity 100nM (GSK3A): 0.7508
- Relative Intensity 300nM (GSK3A): 0.4472
- Relative Intensity 1000nM (GSK3A): 0.237
- Kd (GSK3A): 104 nM
- EC50 (GSK3A): 167 nM
- Relative Intensity 0.3nM (LATS1): 1.0287
- Relative Intensity 1nM (LATS1): 1.07
- Relative Intensity 3nM (LATS1): 1.096
- Relative Intensity 10nM (LATS1): 1.105
- Relative Intensity 30nM (LATS1): 1.087
- Relative Intensity 100nM (LATS1): 0.897
- Relative Intensity 300nM (LATS1): 0.6219
- Relative Intensity 1000nM (LATS1): 0.3635
- Kd (LATS1): 238 nM
- EC50 (LATS1): 238 nM

SMILES: COc1cc(Nc2ncc3c(C)nc(-c4cc5ccccc5[nH]4)n3n2)cc(OC)c1OC [GW869516X]
- Kinobeads Data (SYK; SYK): no target
